These results are taken from patent publication US9247759B2, “Identification of human T2R receptors that respond to bitter compounds that elicit the bitter taste in compositions, and the use thereof in assays to identify compounds that inhibit (block) bitter taste in compositions and use thereof” (SENOMYX, INC., priority 2007, dated 2016).

The target in assay [1] is hT2R3 (Homo sapiens (Human), UniProt Q9NYW6). Briefly: hT2R panel inhibition, transient HEK293 G16g44, agonist Chloroquine pH6.5 50 μM. It is filed as cell-based. The note with it: HEK293, compound at 25 μM; receptor activated to EC80 with the corresponding agonist; read-out: screening result against bitter receptor 3. In short, it runs like this: (§1)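 Agonist concentrations were set at EC80 for each receptor. Activity was compared with and without the test compound, and the reduction recorded as inhibition, across 22 individually transfected human T2Rs.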

Assay [2] concerns the target hT2R71 (Homo sapiens (Human), UniProt P59536). Briefly: hT2R panel inhibition, transient HEK293 G16g44, agonist Picric Acid 10 μM. It is filed as cell-based. The note with it: HEK293, compound at 25 μM; receptor activated to EC80 with the corresponding agonist; read-out: screening result against bitter receptor 71. In short, it runs like this:
as §1

In assay [3] the target is T1, hT2R14 (Homo sapiens (Human), UniProt Q9NYV8). Briefly: hT2R panel inhibition, transient HEK293 G16g44, agonist Aristolochic Acid 2 μM. The note with it: HEK293, compound at 25 μM; receptor activated to EC80 with the corresponding agonist; read-out: screening result against bitter receptor 14. It is filed as cell-based. In short, it runs like this:
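Each hT2R was transiently transfected into HEK293 cells stably expressing G16g44 and assayed functionally for inhibition of agonist response. Agonists were applied at EC80: andrographolide at 0.5 mM for hT2R8 and aristolochic acid at 2 μM for hT2R14.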

The test system of assay [4] is hT2R67. The experiment in a line: hT2R panel inhibition, transient HEK293 G16g44, agonist Andrographolide 5 μM. It is filed as cell-based, human. The note with it: compound at 25 μM; receptor activated to EC80 with the corresponding agonist. In a few lines: as §1
In assay [5] the test system is hT2R55. The experiment in a line: hT2R panel inhibition, transient HEK293 G16g44, agonist Cinchonine 150 μM. Type of assay: cell-based, human. The settings on record: compound at 25 μM; receptor activated to EC80 with the corresponding agonist. In a few lines: as §1
The target of assay [6] is hT2R51 (Homo sapiens (Human), UniProt P59533). Briefly: hT2R panel inhibition, transient HEK293 G16g44, agonist Prop 2.5 μM. Type of assay: cell-based. The note with it: HEK293, compound at 25 μM; receptor activated to EC80 with the corresponding agonist; read-out: screening result against bitter receptor 51. In a few lines:
as §1

Assay [7] addresses hT2R75 (Homo sapiens (Human), UniProt P59540). Briefly: hT2R panel inhibition, transient HEK293 G16g44, agonist Strychnine 1 μM. It is filed as cell-based. The settings on record: HEK293, read-out: screening result against bitter receptor 75, compound at 25 μM; receptor activated to EC80 with the corresponding agonist.
For assay [8], the system named is hT2R63. Briefly: hT2R panel inhibition, transient HEK293 G16g44, agonist Caffeine 1 mM or Andrographolide 100 μM. It is filed as cell-based, human. The settings on record: compound at 25 μM; receptor activated to EC80 with the corresponding agonist. In a few lines:
as §1

Assay [9] concerns the target hT2R5 (Homo sapiens (Human), UniProt Q9NYW4). The experiment in a line: hT2R panel inhibition, transient HEK293 G16g44, agonist Picoline 10 mM. Type of assay: cell-based. The settings on record: HEK293, compound at 25 μM; receptor activated to EC80 with the corresponding agonist; read-out: screening result against bitter receptor 5. In a few lines:
as §1

Assay [10] concerns the target hT2R10 (Homo sapiens (Human), UniProt Q9NYW0). Briefly: hT2R panel inhibition, transient HEK293 G16g44, agonist Strychnine 50 μM. Type of assay: cell-based. The note with it: HEK293, read-out: screening result against bitter receptor 10, compound at 25 μM; receptor activated to EC80 with the corresponding agonist.
Assay [11] addresses hT2R16 (Homo sapiens (Human), UniProt Q9NYV7). The experiment in a line: hT2R panel inhibition, transient HEK293 G16g44, agonist Salicin 1 mM. Type of assay: cell-based. The note with it: HEK293, compound at 25 μM; receptor activated to EC80 with the corresponding agonist; read-out: screening result against bitter receptor 16. In a few lines:
as §1

For assay [12], the target named is hT2R61 (Homo sapiens (Human), UniProt P59537). Briefly: hT2R panel inhibition, transient HEK293 G16g44, agonist Aristolochic Acid 25 nM. It is filed as cell-based. The settings on record: HEK293, compound at 25 μM; receptor activated to EC80 with the corresponding agonist; read-out: screening result against bitter receptor 61. In short, it runs like this: as §1
Assay [13] has as its target hT2R7 (Homo sapiens (Human), UniProt Q9NYW3). Briefly: hT2R panel inhibition, transient HEK293 G16g44, agonist Chloroquine pH6.5 10 mM. The note with it: HEK293, compound at 25 μM; receptor activated to EC80 with the corresponding agonist; read-out: screening result against bitter receptor 7. Type of assay: cell-based. In short, it runs like this:
as §1

The test system of assay [14] is hT2R54. Briefly: hT2R panel inhibition, transient HEK293 G16g44, agonist Ranitidine 5 mM. Type of assay: cell-based, human. The settings on record: compound at 25 μM; receptor activated to EC80 with the corresponding agonist. In a few lines: as §1
The subject of assay [15] is hT2R65. Briefly: hT2R panel inhibition, transient HEK293 G16g44, agonist Oleuropein 1 mM. It is filed as cell-based, human. The settings on record: compound at 25 μM; receptor activated to EC80 with the corresponding agonist. In short, it runs like this:
as §1

The target in assay [16] is hT2R13 (Homo sapiens (Human), UniProt Q9NYV9). Briefly: hT2R panel inhibition, transient HEK293 G16g44, agonist Oxyphenonium 1 mM. The note with it: HEK293, compound at 25 μM; receptor activated to EC80 with the corresponding agonist; read-out: screening result against bitter receptor 13. It is filed as cell-based. As for the experimental part:
Specifically, in order to evaluate the inhibitory selectivity of the Compound C compound, this compound was tested against 22 human T2Rs which were deorphaned by Senomyx. These receptors and the bitter ligands that activate these human T2Rs are reported in earlier patent applications which are incorporated by reference herein. These 22 human T2Rs are hT2R1, 3, 4, 5, 7, 8, 9, 10, 13, 14, 16, 44, 51, 54, 55, 61, 63, 64, 65, 67, 71 and 75. The amino acid and nucleic acid sequences of all of these T2Rs may be found in these earlier patent applications. These human T2Rs were each individually transiently transfected into HEK293 cells that stably express the promiscuous G protein G16g44 and functional assays were effected using these receptors as disclosed in these same patent applications. […] The ligands were used at EC80 concentration levels. The list of bitter ligands utilized and the tested ligand concentrations are contained in Table 5 of this example.
Relating to the foregoing, FIG. 5 contains experimental results wherein Compound C was tested with different agonist compounds. The inhibition activity is represented by the reduction of receptor activity in the presence of Compound C. […] These 13 hT2Rs are hT2R3, 7, 10, 14, 16, 44, 51, 55, 61, 63, 64, 65, and 71.

Assay [17] relates to hT2R44. Briefly: hT2R panel inhibition, transient HEK293 G16g44, agonist Denatonium 0.5 μM. Type of assay: cell-based, human. The settings on record: compound at 25 μM; receptor activated to EC80 with the corresponding agonist. In a few lines: as §1
Assay [18] has as its target hT2R64 (Homo sapiens (Human), UniProt P59538). The experiment in a line: hT2R panel inhibition, transient HEK293 G16g44, agonist Aristolochic Acid 1 μM. Type of assay: cell-based. The settings on record: HEK293, compound at 25 μM; receptor activated to EC80 with the corresponding agonist; read-out: screening result against bitter receptor 64. In a few lines: as §1
Assay [19] addresses T1, hT2R14. Briefly: hT2R14 antagonist high-throughput FLIPR assay, stable cell line with G16g44, agonist aristolochic acid. It is filed as cell-based. The settings on record: read-out: IC50 on hT2R14 bitter receptor. In short, it runs like this: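 HEK293 cells stably expressing hT2R14 with chimeric G16g44 were stimulated with aristolochic acid (3 μM), giving 70-80% of maximal receptor activity. Test compounds were added together with the agonist, and antagonism was read as fluorescent calcium signal on FLIPR.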

Assay [20] deals with hT2R4 (Homo sapiens (Human), UniProt Q9NYW5). Briefly: hT2R panel inhibition, transient HEK293 G16g44, agonist Chloroquine pH6.5 5 mM. Type of assay: cell-based. The settings on record: HEK293, compound at 25 μM; receptor activated to EC80 with the corresponding agonist; class symbols; read-out: screening result against bitter receptor 4. In short, it runs like this:
as §1

For orientation: IC50 means the concentration needed to halve the response being measured.

Each structure is given as a SMILES string.

Sequence of hT2R10 (Q9NYW0 whole entry): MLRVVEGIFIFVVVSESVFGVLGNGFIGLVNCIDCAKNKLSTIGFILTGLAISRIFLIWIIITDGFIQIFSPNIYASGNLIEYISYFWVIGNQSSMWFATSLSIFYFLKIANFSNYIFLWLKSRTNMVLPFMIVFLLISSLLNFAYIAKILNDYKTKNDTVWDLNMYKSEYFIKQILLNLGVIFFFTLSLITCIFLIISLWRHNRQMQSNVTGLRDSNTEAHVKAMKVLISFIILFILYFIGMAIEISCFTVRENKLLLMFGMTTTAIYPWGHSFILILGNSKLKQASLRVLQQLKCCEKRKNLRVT
Sequence of hT2R71 (P59536 whole entry): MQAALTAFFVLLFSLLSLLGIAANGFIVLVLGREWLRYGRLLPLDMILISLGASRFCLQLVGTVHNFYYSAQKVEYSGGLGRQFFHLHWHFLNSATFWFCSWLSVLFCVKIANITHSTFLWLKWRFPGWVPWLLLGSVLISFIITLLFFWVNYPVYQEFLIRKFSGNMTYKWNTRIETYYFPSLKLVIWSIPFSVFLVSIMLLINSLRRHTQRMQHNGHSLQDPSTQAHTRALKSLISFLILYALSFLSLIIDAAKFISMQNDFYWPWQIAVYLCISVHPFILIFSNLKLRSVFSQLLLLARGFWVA
Sequence of hT2R75 (P59540 whole entry): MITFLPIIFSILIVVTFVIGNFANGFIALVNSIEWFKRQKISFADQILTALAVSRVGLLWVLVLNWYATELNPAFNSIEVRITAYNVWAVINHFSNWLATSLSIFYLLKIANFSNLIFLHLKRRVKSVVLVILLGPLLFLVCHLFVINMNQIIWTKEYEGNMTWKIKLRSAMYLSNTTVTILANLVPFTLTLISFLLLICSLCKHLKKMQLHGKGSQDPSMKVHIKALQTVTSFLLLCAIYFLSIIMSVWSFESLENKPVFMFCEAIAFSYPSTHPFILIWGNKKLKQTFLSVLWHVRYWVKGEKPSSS
Sequence of hT2R3 (Q9NYW6 whole entry): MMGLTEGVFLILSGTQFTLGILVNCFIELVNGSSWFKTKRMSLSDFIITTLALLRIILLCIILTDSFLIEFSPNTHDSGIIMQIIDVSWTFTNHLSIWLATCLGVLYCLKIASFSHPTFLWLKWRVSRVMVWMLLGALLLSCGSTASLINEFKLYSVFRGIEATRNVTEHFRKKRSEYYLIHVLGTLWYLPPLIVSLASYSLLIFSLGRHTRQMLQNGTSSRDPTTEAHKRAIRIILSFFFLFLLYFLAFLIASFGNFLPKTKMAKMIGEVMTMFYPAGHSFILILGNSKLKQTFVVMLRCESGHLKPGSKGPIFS
Sequence of hT2R64 (P59538 whole entry): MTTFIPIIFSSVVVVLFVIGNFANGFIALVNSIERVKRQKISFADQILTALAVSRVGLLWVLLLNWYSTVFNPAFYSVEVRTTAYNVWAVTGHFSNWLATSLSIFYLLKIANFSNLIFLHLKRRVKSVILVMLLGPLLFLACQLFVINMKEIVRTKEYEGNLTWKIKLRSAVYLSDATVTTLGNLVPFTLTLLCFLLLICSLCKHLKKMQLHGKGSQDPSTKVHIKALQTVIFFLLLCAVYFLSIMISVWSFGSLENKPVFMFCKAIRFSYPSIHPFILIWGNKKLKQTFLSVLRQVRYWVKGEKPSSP
Sequence of hT2R51 (P59533 whole entry): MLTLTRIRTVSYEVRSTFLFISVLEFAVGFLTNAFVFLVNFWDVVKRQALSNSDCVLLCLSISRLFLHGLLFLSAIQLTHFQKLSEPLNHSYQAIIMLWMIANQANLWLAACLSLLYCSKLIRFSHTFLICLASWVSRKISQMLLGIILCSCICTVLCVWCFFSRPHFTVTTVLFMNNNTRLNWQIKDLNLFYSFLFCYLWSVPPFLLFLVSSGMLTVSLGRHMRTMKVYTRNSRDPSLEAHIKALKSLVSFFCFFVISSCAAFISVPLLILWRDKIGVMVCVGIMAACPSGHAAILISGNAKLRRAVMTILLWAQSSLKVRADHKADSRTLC
Sequence of hT2R5 (Q9NYW4 whole entry): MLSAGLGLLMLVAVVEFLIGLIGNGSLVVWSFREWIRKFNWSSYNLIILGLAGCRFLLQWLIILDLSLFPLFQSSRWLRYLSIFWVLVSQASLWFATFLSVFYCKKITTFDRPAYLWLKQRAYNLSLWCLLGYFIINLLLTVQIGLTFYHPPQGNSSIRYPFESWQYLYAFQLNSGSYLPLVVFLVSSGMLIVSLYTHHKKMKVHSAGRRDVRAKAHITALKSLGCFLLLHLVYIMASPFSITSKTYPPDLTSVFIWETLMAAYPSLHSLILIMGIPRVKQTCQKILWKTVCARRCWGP
Sequence of hT2R13 (Q9NYV9 whole entry): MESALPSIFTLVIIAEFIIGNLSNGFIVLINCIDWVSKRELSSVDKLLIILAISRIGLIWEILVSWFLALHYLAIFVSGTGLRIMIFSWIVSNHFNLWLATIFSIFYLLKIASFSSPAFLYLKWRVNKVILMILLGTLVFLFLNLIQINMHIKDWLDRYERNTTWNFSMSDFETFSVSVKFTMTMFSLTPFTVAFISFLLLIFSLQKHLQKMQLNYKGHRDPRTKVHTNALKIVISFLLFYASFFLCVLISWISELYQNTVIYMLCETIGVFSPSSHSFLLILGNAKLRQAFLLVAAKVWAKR
Sequence of hT2R61 (P59537 whole entry): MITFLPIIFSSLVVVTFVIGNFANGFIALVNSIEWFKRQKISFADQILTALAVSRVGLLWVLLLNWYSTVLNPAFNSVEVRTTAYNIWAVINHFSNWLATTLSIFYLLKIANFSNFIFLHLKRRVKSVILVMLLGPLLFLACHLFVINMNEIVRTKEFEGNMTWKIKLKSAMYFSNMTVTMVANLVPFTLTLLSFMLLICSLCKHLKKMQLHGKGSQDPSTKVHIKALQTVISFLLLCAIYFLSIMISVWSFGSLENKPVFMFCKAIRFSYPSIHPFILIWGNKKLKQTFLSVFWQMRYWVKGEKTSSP
Sequence of hT2R7 (Q9NYW3 whole entry): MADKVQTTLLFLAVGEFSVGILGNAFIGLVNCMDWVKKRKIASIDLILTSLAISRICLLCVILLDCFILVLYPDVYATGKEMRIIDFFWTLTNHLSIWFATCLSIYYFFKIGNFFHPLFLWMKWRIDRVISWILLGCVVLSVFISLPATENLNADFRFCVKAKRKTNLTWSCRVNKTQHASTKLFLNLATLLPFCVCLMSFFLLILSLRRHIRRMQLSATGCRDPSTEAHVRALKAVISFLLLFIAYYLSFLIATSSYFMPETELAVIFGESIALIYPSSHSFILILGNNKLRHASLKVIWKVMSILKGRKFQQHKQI
T1 sequence (Q9NYV8 whole entry): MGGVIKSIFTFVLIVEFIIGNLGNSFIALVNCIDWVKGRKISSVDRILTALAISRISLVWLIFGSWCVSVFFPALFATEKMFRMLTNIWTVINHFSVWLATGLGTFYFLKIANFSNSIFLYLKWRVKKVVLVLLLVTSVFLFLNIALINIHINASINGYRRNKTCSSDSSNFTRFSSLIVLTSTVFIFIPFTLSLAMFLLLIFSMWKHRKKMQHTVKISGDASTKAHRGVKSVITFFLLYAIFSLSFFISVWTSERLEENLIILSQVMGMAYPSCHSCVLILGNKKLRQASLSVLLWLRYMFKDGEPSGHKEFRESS
Sequence of hT2R16 (Q9NYV7 whole entry): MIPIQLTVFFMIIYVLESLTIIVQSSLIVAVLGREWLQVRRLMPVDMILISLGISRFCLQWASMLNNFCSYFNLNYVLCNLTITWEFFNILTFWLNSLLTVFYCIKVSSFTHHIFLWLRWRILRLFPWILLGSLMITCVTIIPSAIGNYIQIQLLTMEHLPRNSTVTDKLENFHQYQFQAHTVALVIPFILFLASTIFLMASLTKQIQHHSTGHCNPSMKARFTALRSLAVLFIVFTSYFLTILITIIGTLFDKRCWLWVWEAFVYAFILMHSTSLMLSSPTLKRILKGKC
Sequence of hT2R4 (Q9NYW5 whole entry): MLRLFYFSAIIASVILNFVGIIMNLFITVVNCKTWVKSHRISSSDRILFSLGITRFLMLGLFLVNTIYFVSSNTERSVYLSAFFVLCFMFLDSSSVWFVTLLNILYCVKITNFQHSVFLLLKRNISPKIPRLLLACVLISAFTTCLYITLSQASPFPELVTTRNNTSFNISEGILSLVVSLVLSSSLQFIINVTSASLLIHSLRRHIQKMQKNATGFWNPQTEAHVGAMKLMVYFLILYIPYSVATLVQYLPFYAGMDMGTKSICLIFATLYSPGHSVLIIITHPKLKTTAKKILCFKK

As for `CCc1ccc(CN(Cc2ccccc2)S(=O)(=O)c2ccc(C(=O)O)cc2)cc1` [Example 5-85, 4-(N-benzyl-N-(4-ethylbenzyl)sulfamoyl)benzoic acid], the inhibition at 25 µM in [1] is 40 to 60%; in assay [2], 20 to 40%; in [3], more than 80%; in assay [6] it was 20 to 40%; in [7], 20 to 40%; in assay [9] it was 20 to 40%. In addition, the inhibition at 25 µM was 40 to 60% in assay [10]; 40 to 60% in assay [11]; more than 80% in [12]; 20 to 40% in assay [13]; 20 to 40% in assay [16]. Moreover, the “screening result against bitter receptor 67” value in assay [4] is “++ (40% to 60% inhibition = ++)”. Also, the “screening result against bitter receptor 55” value in assay [5] was “+++ (60% to 80% inhibition = +++)”. In assay [8], the “screening result against bitter receptor 63” value is listed as “+++ (60% to 80% inhibition = +++)”. In addition, the “screening result against bitter receptor 54” value in assay [14] is “+++ (60% to 80% inhibition = +++)”. The “screening result against bitter receptor 65” value in assay [15] is “+++ (60% to 80% inhibition = +++)”.
On to `COc1ccc(CN(Cc2ccoc2)S(=O)(=O)c2ccc(C(=O)O)cc2)cc1` [Example 5-27, 4-(N-(furan-3-ylmethyl)-N-(4-methoxybenzyl)sulfamoyl)benzoic acid], for which the inhibition at 25 µM in assay [1] was 40 to 60%; in assay [2], 60 to 80%; in [3] it was more than 80%; in [6] it was 40 to 60%; in [7], 20 to 40%; in assay [9], 40 to 60%. Further, the inhibition at 25 µM in assay [10] was 60 to 80%; in assay [11], 20 to 40%; in assay [12], more than 80%; in assay [13] it was 20 to 40%; in assay [18] it was 60 to 80%; in assay [16], 20 to 40%. In addition, the “screening result against bitter receptor 67” value in assay [4] is “++ (40% to 60% inhibition = ++)”. In assay [5], the “screening result against bitter receptor 55” value is on record as “++++ (80% or greater inhibition = ++++)”. For the same compound, the “screening result against bitter receptor 63” value in assay [8] is on record as “+++ (60% to 80% inhibition = +++)”. For the same compound, the “screening result against bitter receptor 44” value in assay [17] is reported as “+++ (60% to 80% inhibition = +++)”. Moreover, the “screening result against bitter receptor 54” value in assay [14] is listed as “++ (40% to 60% inhibition = ++)”. The “screening result against bitter receptor 65” value in assay [15] is “++ (40% to 60% inhibition = ++)”.
With `O=C(O)c1ccc(S(=O)(=O)N(Cc2ccccc2)Cc2ccco2)cc1` [Example 5-5, 4-(N-benzyl-N-(furan-2-ylmethyl)sulfamoyl)benzoic acid], the inhibition at 25 µM is 40 to 60% in [1]; 60 to 80% in assay [2]; more than 80% in assay [3]; 20 to 40% in assay [6]; 20 to 40% in assay [7]; 20 to 40% in [9]. In addition, the inhibition at 25 µM in [10] is 20 to 40%; in [11], 40 to 60%; in assay [12], more than 80%; in assay [13] it was 40 to 60%; in [18] it was 60 to 80%; in assay [16], 20 to 40%. Further, the “screening result against bitter receptor 67” value in [4] is “+ (20% to 40% inhibition = +)”. The “screening result against bitter receptor 55” value in [5] is reported as “++++ (80% or greater inhibition = ++++)”. The “screening result against bitter receptor 63” value in assay [8] was “++++ (80% or greater inhibition = ++++)”. Also, in [19], the IC50 worked out at 4.6 µM. Moreover, the “screening result against bitter receptor 44” value in assay [17] is listed as “++ (40% to 60% inhibition = ++)”. The “screening result against bitter receptor 54” value in assay [14] is reported as “+ (20% to 40% inhibition = +)”. Also, the “screening result against bitter receptor 65” value in assay [15] was “+ (20% to 40% inhibition = +)”.
For the compound `COc1ccc(CN(C2CCCc3ccccc32)S(=O)(=O)c2ccc(C(=O)O)cc2)cc1` (stereo not drawn) [Example 5-96, 4-(N-(4-methoxybenzyl)-N-(1,2,3,4-tetrahydronaphthalen-1-yl)sulfamoyl)benzoic acid], the inhibition at 25 µM in assay [1] is 20 to 40%; in assay [2], 40 to 60%; in assay [3], more than 80%; in assay [20], 20 to 40%; in assay [11] it was 20 to 40%; in [12], more than 80%. Moreover, the inhibition at 25 µM in [18] lay within 60 to 80%; in [16], 20 to 40%. In assay [4], the “screening result against bitter receptor 67” value is reported as “+ (20% to 40% inhibition = +)”. In [5], the “screening result against bitter receptor 55” value is recorded as “++++ (80% or greater inhibition = ++++)”. For the same compound, the “screening result against bitter receptor 63” value in assay [8] is “++++ (80% or greater inhibition = ++++)”. Besides, the “screening result against bitter receptor 44” value in assay [17] is “+++ (60% to 80% inhibition = +++)”. For the same compound, the “screening result against bitter receptor 65” value in assay [15] is listed as “++++ (80% or greater inhibition = ++++)”.
